From patent US20230035422A1, “METHODS FOR TREATING DISEASES BY TARGETING ONCOGENIC LIPIDS” (THE TRUSTEES OF COLUMBIA UNIVERSITY IN THE CITY OF NEW YORK, priority 2020, published 2023)

Key:
[1] = tested on: breast cancer cell lines (high-ADCK3 vs low-ADCK3); assay: Breast cancer cell line panel viability with ferroptosis inducers (CellTiter-Glo); format: cell-based; conditions: 2-fold dilution series, 72 hours
Procedure: Breast cancer cell lines were treated with ferroptosis inducers FIN56 (FIG. 2D) or RSL3 (FIG. 2E) in 2-fold dilution series for 72 hours. Cell viability was measured with CellTiter-Glo®. Ferroptosis-sensitive breast cancer cells are categorized as ‘high-ADCK3’ expressing (orange), while cells that are less sensitive to ferroptosis induction were the ones with ‘low-ADCK3’ (green).
A panel of 10 breast cancer cell lines was selected form the Broad Institute Cancer Cell Line Encyclopedia database (CCLE; https://portals.broadinsitute.org/ccle),based on their ADCK3 copy number and mRNA expression levels, to have a good representation of ADCK3-amplified cells (termed here as ‘high-ADCK3’), as well as a control group expressing normal levels of ADCK3 (termed here as ‘low-ADCK3’; FIG. 2A). To confirm a correlation between high ADCK3 gene/transcript expression and protein expression, ADCK3 levels were measured by western blot (FIG. 2B). Cells were divided into high-ADCK3 (orange in FIGS. 2A-2E) and low-ADCK3 (green in FIGS. 2A-2E) according to the protein expression level. […] High ADCK3 protein levels correlated with high CoQ10 abundance, measured by LC-MS (FIG. 2C). […]

[2] = tested on: SKBR3 cells overexpressing ADCK3-FLAG; assay: Ferroptosis induction in SKBR3 cells overexpressing ADCK3-FLAG (CellTiter-Glo); format: cell-based; conditions: RSL3 10 or 20 nM, FIN56 78 or 156 nM, 48 h
Procedure: Viability was measured with CellTiter-Glo®.
ADCK3-FLAG was stably overexpressed in SKBR3 cells through retroviral infection. First, proper localization of the overexpressed protein to the mitochondria was validated by fluorescent microscopy. Similarly to the localization pattern of endogenous ADCK3 to the mitochondria, overexpressed ADCK3-FLAG co-localized with a MitoTracker fluorescent probe (FIG. 5A).

SKBR3 cells [3] = assay: Cellular lipid-ROS by C11-BODIPY flow cytometry; format: cell-based
From the text: (§1) Thus, it was concluded that SGC-GAK-1 induces ferroptosis in ADCK3-amplified cells, perhaps by reducing the levels of ADCK3 and CoQ10.

SKBR3 cells [4] = assay: SKBR3 cell death / viability on SGC-GAK-1 treatment; format: cell-based
From the text: as §1

[5] = tested on: ADCK3 knockdown/knockout SKBR3 cells; assay: Ferroptosis induction in ADCK3 knockdown/knockout SKBR3 cells (CellTiter-Glo); format: cell-based; conditions: for rescue of RSL3-induced death in siRNA ADCK3 knockdown cells: SKBR3, siRNA ADCK3, RSL3 48 h
Procedure: At 48 h after transfection, cells were treated with RSL3 in 2-fold dilution series for 48 h, in combination with ferrostatin-1 or idebenone. Viability was measured with CellTiter-Glo®. […] Stable CRISPR cells were treated with FIN56 in 2-fold dilution series in combination with ferrostatin-1, for 48 h. Viability was measured with CellTiter-Glo®. […] (grey) cells were treated with RSL3 or FIN56 in 2-fold dilution series in combination with 2 μM ferrostatin-1 for 48 h. Viability was measured with CellTiter-Glo®.

ADCK3 [6] = assay: Western blot of ADCK3 protein levels in SKBR3 cells; format: cell-based; conditions: SKBR3, 50 nM SGC-GAK-1, 48 hours
Procedure: SKBR3 cells were treated with 50 nM SGC-GAK-1 or vehicle, for 48 h, and analyzed by western blot for ADCK3 and GAPDH levels.
as §1

ADCK3 [7] = molecular target: ADCK3 (Homo sapiens, UniProt Q8NI60); conditions: reported, Asquith et al. 2019; cited from earlier work
ADCK3 (Homo sapiens, UniProt Q8NI60), sequence (Q8NI60 163-647): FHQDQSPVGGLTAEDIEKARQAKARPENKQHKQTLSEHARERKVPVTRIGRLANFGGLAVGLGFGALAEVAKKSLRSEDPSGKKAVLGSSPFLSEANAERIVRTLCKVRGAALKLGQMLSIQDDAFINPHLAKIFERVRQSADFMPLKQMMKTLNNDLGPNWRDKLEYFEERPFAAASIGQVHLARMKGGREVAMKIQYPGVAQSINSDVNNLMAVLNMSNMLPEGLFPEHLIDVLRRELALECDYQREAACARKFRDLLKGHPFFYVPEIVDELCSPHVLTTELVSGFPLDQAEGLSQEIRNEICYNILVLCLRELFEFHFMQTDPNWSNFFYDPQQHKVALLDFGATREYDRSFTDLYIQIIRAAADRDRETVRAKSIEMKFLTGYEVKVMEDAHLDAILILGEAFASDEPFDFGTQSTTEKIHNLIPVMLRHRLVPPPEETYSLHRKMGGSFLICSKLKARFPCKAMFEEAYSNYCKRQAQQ

CoQ10 = CoQ10 abundance in SKBR3 cells by LC/MS; format: cell-based; conditions: SKBR3, 50 nM SGC-GAK-1, 48 hours
From the text: CoQ10 abundance in SKBR3 cells treated as in FIG. 6A, measured by LC/MS.
as §1

[8] = tested on: triple-negative breast cancer; conditions: cited from earlier work

Compound: O=S(=O)(NC1CCCCC1)c1ccc2c(c1)C(=NO)c1cc(S(=O)(=O)NC3CCCCC3)ccc1-2 [FIN56]
- sensitivity to ferroptosis induction of cells with amplified ADCK3 expression [1]: distinct higher sensitivity
- cytotoxic effect in cells overexpressing ADCK3 compared to control [2]: statistically significant reduction in cytotoxic effect

Compound: CCOC(=O)c1ccc(NC2CCCCC2)c(N)c1 [ferrostatin-1]
- rescue of SGC-GAK-1-induced increase in cellular lipid-ROS (SKBR3 cells [3]; SKBR3, 2 µM ferrostatin-1): rescued
- rescue of SGC-GAK-1-induced ferroptotic death (SKBR3 cells [4]; SKBR3, 1 µM ferrostatin-1): rescued
- rescue of death and sensitization in CRISPR/shRNA ADCK3 knockout cells ([5]; SKBR3, RSL3 or FIN56 with ferrostatin-1 (2 µM in shRNA cells)): rescued
- rescue of RSL3-induced death in siRNA ADCK3 knockdown cells [5]: rescued

Compound: COC1=C(OC)C(=O)C(CCCCCCCCCCO)=C(C)C1=O [idebenone]
- rescue of RSL3-induced death in siRNA ADCK3 knockdown cells [5]: rescued

Compound: COc1cc(Nc2ccnc3ccc(Br)cc23)cc(OC)c1OC [SGC-GAK-1]
- lipid-ROS (SKBR3 cells [3]; SKBR3, 50 nM SGC-GAK-1, 48 h, C11-BODIPY): increase in lipid-ROS
- ADCK3 protein levels (ADCK3 [6]): marked reduction in ADCK3 protein levels
- inhibitory activity against ADCK3 (ADCK3 [7]): nanomolar inhibitory activity
- sensitivity of SKBR3 cells to RSL3-mediated ferroptotic death (SKBR3 cells [4]; SGC-GAK-1 combined with RSL3): further potentiated SKBR3 cells to RSL3-mediated ferroptotic death
- cell death induced by SGC-GAK-1 alone (SKBR3 cells [4]; SKBR3 cells, with or without ferrostatin-1): induced cell death that was rescued by the ferroptosis inhibitor ferrostatin-1
- CoQ10 levels (CoQ10): reduced CoQ10 levels

Compound: Tecentriq: approved in combination with protein-bound paclitaxel for unresectable triple-negative breast cancer whose tumors express PD-L1
- patients who experienced adverse reactions ([8]; in vivo): greater than 20%
- median progression-free survival ([8]; with protein-bound paclitaxel, PD-L1 expressing unresectable triple-negative breast cancer): 7.4 months
- extension of median progression-free survival ([8]; with protein-bound paclitaxel, from 4.8 to 7.4): 2.6 months

Compound: COC(=O)c1ccc([C@@H]2c3[nH]c4ccccc4c3C[C@@H](C(=O)OC)N2C(=O)CCl)cc1 [RSL3]
- sensitivity of siRNA ADCK3 knockdown cells to ferroptosis inducer ([5]; SKBR3, siRNA ADCK3 vs non-targeting control, 48 h treatment): increased the sensitivity
- sensitivity to ferroptosis induction of cells with amplified ADCK3 expression [1]: distinct higher sensitivity
- cytotoxic effect in cells overexpressing ADCK3 compared to control [2]: statistically significant reduction in cytotoxic effect
